We go through one molecule from patent publication US11857669B2, “Treatment of a disease of the gastrointestinal tract with a JAK inhibitor and devices” (BIORA THERAPEUTICS, INC., priority 2016, dated 2024).

The data set in a line: Tacrolimus tissue pharmacokinetics, oral vs intra-cecal ingestible device delivery. It counts as in vivo, Yorkshire-Cross farm swine. The note with it: swine; intra-cecally vs orally administered; 12 hours post-dose; FIG. 76. On the procedure: The primary objective of this study was to compare the tissue, plasma, rectal sample, and GI content pharmacokinetics of tacrolimus through oral versus intra-cecal ingestible device delivery in normal Yorkshire-Cross farm swine.
No further randomization procedure was employed.
Animals in Group 1 received an ingestible device containing 0.8 mL of vehicle solution (80% alcohol, 20% HCO-60). Animals in Group 2 received orally […] liquid formulation of tacrolimus at 4 mg/0.8 mL per animal (Prograf: 5 mg/mL). Animals in Group 3 received intra-cecally an ingestible device containing tacrolimus at 1 mg in 0.8 mL per ingestible device. Animals in Group 4 received intra-cecally an ingestible device containing tacrolimus at 2 mg in 0.8 mL per ingestible device. Animals in Group 5 received intra-cecally an ingestible device containing tacrolimus at 4 mg in 0.8 mL per ingestible device. […]
For tissue necropsy, small intestine fluid and cecal fluid were collected separately from all the animals into two separate square plastic bottles, and stored at −20° C. The length and diameter of the cecum and the colon was measured from one animal in each group and recorded for reference. […] All samples were weighed, and the tissue sample weights were recorded. […] Around 3 grams of the total punched sample were collected into a pre-weighed 15-mL conical tube, and the tissue weight was recorded. […]

Take `C=CC[C@@H]1/C=C(\C)C[C@H](C)C[C@H](OC)[C@H]2O[C@@](O)(C(=O)C(=O)N3CCCC[C@H]3C(=O)O[C@H](/C(C)=C/[C@@H]3CC[C@@H](O)[C@H](OC)C3)[C@H](C)[C@@H](O)CC1=O)[C@H](C)C[C@@H]2OC` [tacrolimus]: the “mean concentration of tacrolimus in the cecum tissue and the proximate colon tissue” value was “higher”.
